Results: patent US9321750B2, “ROR modulators and their uses” (INNOV17 LLC, priority 2012, dated 2016)

Assays:
IL-17AF = experiment: TH17 cytokine inhibition as measured by ELISA: IL-17AF; format: cell-based; conditions: 120 h; human TH17 cells, 5 days differentiation, ELISA of supernatant
Protocol: (§1) Peripheral blood mononuclear cells (PBMCs) were sourced from freshly prepared leukocyte enriched plasma (buffy coat) from healthy volunteers from which PBMCs were isolated by density gradient centrifugation using Ficoll-Paque™ PLUS (GE Healthcare). Naïve CD4+ T cells were isolated using the Naïve CD4+ T cell Isolation Kit II (Miltenyi Biotec) as per manufacturer's instructions. CD4+ T cells were plated at 5×10^4 cells/well in 96 well plates pre-coated with immobilized human (h)-αCD3 antibody (eBioscience) then differentiated to TH17 cells using h-αCD28, h-αIFNγ, h-αIL4, h-IL6, h-IL23, h-IL1β, h-TGFβ1 (eBioscience) and maintained in a cell culture incubator at 37° C. with 5% CO2 in TexMACS Medium (Miltenyi Biotec) supplemented with 1% Penicillin/Streptomycin (Lonza) over 5 days.
(§2) Human CD4+ T cells were differentiated to TH17 cells as described in the presence or absence of various concentrations of compounds in a final concentration of 0.1% DMSO in TexMACS medium. Supernatants were collected and stored at −20° C. until they were to be assayed for IL-17A, IL-17F, IL-17AF, IL-21 and/or IL-22 levels as determined by Ready-Set-Go ELISA kits (eBioscience) as per manufacturer's instructions. Endpoint absorbance was read at 450 nm and 570 nm according to manufacturer's instructions (eBioscience) using a microplate reader (Perkin Elmer). The percentage of cytokine inhibition was calculated with reference to DMSO treated cells and the IC50s were determined by GraphPad Prism software and presented in the table below.

IL-22 = experiment: TH17 cytokine inhibition as measured by ELISA: IL-22; format: cell-based; conditions: 120 h; human TH17 cells, 5 days differentiation, ELISA of supernatant
Protocol: as §1, §2

TH17 cells = experiment: TH17 cellular proliferation (Prestoblue); format: cell-based; conditions: Homo sapiens, 120 h; 3 μM compound, after 5 day TH17 differentiation, relative to DMSO treated TH17 cells; read-out: % change in TH17 cell number
Protocol: as §1
Cellular proliferation was assessed in the presence or absence of 3 μM compound using Prestoblue® Cell Viability Reagent (Life Technologies) as per manufacturer's instructions using absorbance as the output measured by a microplate reader (Perkin Elmer) after 30 minutes of incubation of cells and reagent. A standard curve developed by plotting varying cell numbers versus absorbance was used to assess differences in cellular proliferation between compound treated or untreated cells after the 5 day TH17 differentiation period.

[1] = TH17 cell viability (Prestoblue); format: cell-based; set-up: concentration or dose not given beside the values; conditions: human; percentage of DMSO treated cells; read-out: % viability of compound treated TH17 cells
Protocol: as §1
Cells were assayed for viability in the presence or absence of compound using Prestoblue® Cell Viability Reagent (Life Technologies) as per manufacturer's instructions after 30 minutes incubation of TH17 cells with reagent. Absorbance was measured at 570 nm and 600 nm using a microplate reader (Perkin Elmer) and data were analyzed as per manufacturer's instructions. Cell viability was expressed as a percentage of DMSO treated cells.

IL-21 [2] = experiment: Real-time qRT-PCR in TH17 cells: IL-21 gene expression; format: cell-based, human; set-up: key: A: No change in gene expression observed relative to DMSO treated Th17 cells; B: Decreased gene expression observed relative to DMSO treated Th17 cells; C: Increased gene expression observed relative to DMSO treated Th17 cells
Protocol: as §1
RNA was isolated from TH17 cells and cDNA was synthesized using the Verso cDNA kit (Thermo Scientific) as per manufacturer's instructions. IL-17A, IL-17F, IL-21, IL-22, G-CSF, IL-23R and FOXP3 gene expression were determined for compound treated and untreated TH17 cell samples using Solaris qPCR Gene expression assays (Thermo Scientific) with an iCycler iQ Real-Time PCR Detection System (Bio-Rad). Individual gene expression was normalized to a panel of six reference genes (ACTB, TBP, HPRT1, PGK1, TFRC and PPIA) (Thermo Scientific) and analyzed by REST 2009 (Qiagen) in accordance to MIQE guidelines (Bustin et al. (2009) Clin. Chem, 55:611-622). The effects of compounds on TH17 cytokine mRNA levels are presented as fold change in gene expression of compound treated TH17 cells relative to DMSO treated cells in the table below.

IL-21 [3] = experiment: TH17 cytokine inhibition as measured by ELISA: IL-21; format: cell-based; conditions: 120 h; human TH17 cells, 5 days differentiation, ELISA of supernatant
From the text: Peripheral blood mononuclear cells (PBMCs) were sourced from freshly prepared leukocyte enriched plasma (buffy coat) from healthy volunteers from which PBMCs were isolated by density gradient centrifugation using Ficoll-Paque™ PLUS (GE Healthcare). Naïve CD4+ T cells were isolated using the Naïve CD4+ T cell Isolation Kit II (Miltenyi Biotec) as per manufacturer's instructions. […]
as §2

In the case of `CC(=O)Nc1ccc2c(c1)CCCN2Cc1ccc(C(O)(C(F)(F)F)C(F)(F)F)cc1` [Example 2, N-(1-(4-(1,1,1,3,3,3-hexafluoro-2-hydroxypropan-2-yl)benzyl)-1,2,3,4-tetrahydroquinolin-6-yl)acetamide], the IC50 (IL-17AF) is reported as less than 10 µM, the IC50 (IL-22) is reported as less than 10 µM and the inhibition at 3 µM (TH17 cells) is reported as no more than 50%. The viability [1] was greater than 80% and the “Fold change in mRNA level of compound treated TH17 cells relative to DMSO treated cells IL-21” value (IL-21 [2]) was “A”.
`CC(=O)Nc1ccc2c(c1)CCN2Cc1ccc(C(O)(C(F)(F)F)C(F)(F)F)cc1` [Example 4, N-(1-(4-(1,1,1,3,3,3-hexafluoro-2-hydroxypropan-2-yl)benzyl)indolin-5-yl)acetamide] gave an IC50 (IL-17AF) of less than 10 µM, an IC50 (IL-22) of less than 10 µM and an inhibition at 3 µM (TH17 cells) greater than 50%. For the same compound, the viability [1] was greater than 80%, the “Fold change in mRNA level of compound treated TH17 cells relative to DMSO treated cells IL-21” value (IL-21 [2]) was “B” and the IC50 (IL-21 [3]) was less than 10 µM.
With `CS(=O)(=O)Nc1ccc2c(c1)CCCN2Cc1ccc(C(O)(C(F)(F)F)C(F)(F)F)cc1` [Example 5, N-(1-(4-(1,1,1,3,3,3-hexafluoro-2-hydroxypropan-2-yl)benzyl)-1,2,3,4-tetrahydroquinolin-6-yl)methanesulfonamide] the IC50 (IL-22) was less than 10 µM, the inhibition at 3 µM (TH17 cells) was no more than 50% and the viability [1] was greater than 80%. The “Fold change in mRNA level of compound treated TH17 cells relative to DMSO treated cells IL-21” value (IL-21 [2]) was “B”.
